Literature values in US20190350879A1, “METHOD OF TREATING PAIN USING RACEMIC MIXTURE OF S-KETAMINE AND R-KETAMINE” (priority 2017, published 2019).

Key:
[1] = S(+)ketamine compared to R-isomer
[2] = test system: N-Methyl-D-Aspartate receptors; conditions: S(+)ketamine relative to R-isomer; target not named

CN[C@]1(c2ccccc2Cl)CCCCC1=O [S(+)ketamine]
psychotomimetic side effects [1]: greater psychotomimetic side effects
affinity, times greater [2]: approximately four
